From US20230102836A1, “Amoebicidal Compositions for Contact Lens Solutions” (University of the West of Scotland, priority 2019, published 2023)
Several values for one entry are separate records, joined by “and”; a condition that tells them apart may be missing. Equal values may be shown once.

How the values were obtained:
Assay type in all cases: cell-based, Acanthamoeba castellanii ATCC 50370
[1] = system: A. castellanii trophozoites; assay: Drug wash-out / alamarBlue-reversion assay, trophozoites
A. castellanii cysts = assay: Drug wash-out / alamarBlue-reversion assay, cysts; conditions: for Back transformation to trophozoites after drug wash-out: Cysts; as to Back transformation to trophozoites after drug wash-out: key: +: indicates cells reverting back to trophozoites after washout; and capable of oxidizing reduced alamarBlue from blue to pink after 8 days; −: indicates cell that did not revert to trophozoites after wash-out and unable to oxidise reduced alamarBlue solution
Method: For the drug kinetic assay, viability was assessed by the linked alamarBlue-reversion assay. Drug-treated cysts were washed with PBS and fresh PG medium was added to allow reversion to trophozoites for 5 days, after which, alamar blue was added and viability estimated as described above.
The cysticidal activity of QAC16 to QAC18 strongly correlated with (a) the alkyl-carbon chain lengths (Table 2) and the duration of drug contact (FIG. 8H). Like trophozoites, death was via leakage judged by 40% and 50% increase in DNA and proteins in the external milieu after 1 h (FIGS. 9A and 9B). To investigate if the cyst were viable, a complementary viability assay that involved, drug washout, incubation in PG medium to allow reversion of viable cyst to trophozoite for 7 days, and estimation of viability using the oxidation of resazurin after 6 h.

[2] = system: A. castellanii trophozoites; assay: SDS disintegration of QAC-treated trophozoites; conditions: QAC18-treated, 0.5% SDS for 30 min
Method: (§1) Acanthamoeba trophozoites ([…]) incubated without (FIG. 2A), with QAC18 at 37.5 μg/ml for 1 h at 25° C. (FIG. 2B), and 0.5% SDS for 30 min (FIG. 2C). QAC18 reduced trophozoites sizes from 29.02±0.23 (FIG. 2A) to 7.87 f 0.93 (FIG. 2B) which disintegrated after 30 min treatment with SDS (FIG. 2C).
Acanthamoeba castellanii ATCC 50370 trophozoites and cysts were cultured in Peptone Glucose (PG) medium and encystment medium (Chagla A H, Griffiths A J (1974) Microbiology: 85(1): 139-145) respectively at 25° C. Cysts were prepared by incubating trophozoites for 8 days in encystment medium and integrity validated with calcofluor (0.25 μg/ml) assay (Gatti S et al (2010) J. Med. Microbiol.; 59: 1324-1330) or sodium dodecyl sulfate (SDS, 0.5% w/v) disintegration assay (Dudley R et al (2005) Acta Trop.; 9: 100-8) and microscopic observation.

[3] = system: A. castellanii trophozoites; assay: Cytotoxicity assay on trophozoites (resazurin / alamarBlue); conditions: Acanthamoeba castellanii; Table 2; read-out: IC50 A. castellanii trophozoites
[4] = system: A. castellanii trophozoites; assay: Combined assay with fixed QAC12 (alamarBlue); conditions: Acanthamoeba castellanii, 96 h, 96 h at 25° C.
Method: Acanthamoeba trophozoites (10^5 cells/ml. n=5/treatment) treated with 100 μg/ml doubly diluted to 0.06 μg/ml of QAC18 (a,b) or APC16 (c,d) for 96 h at 25° C. […] Similarly. APC16 alone at the same concentration (closed circle, FIG. 6C, FIG. 6D) in combination with QAC12 at 18.75 μg/ml (open squares, d) QAC12 at […] (open squares, FIG. 6C). Data are mean absorbance at 595 nm t SD; n=4 independent experiments performed in triplicates. IC50s were not statistically significant between QAC12 at both concentrations and QAC16 (p>0.05, FIG. 6A, FIG. 6B) but significant with APC16 (p<0.05, FIG. 6C, FIG. 6D).
For the combined assay, similar concentrations of QAC18 and APC16 were prepared and 18.75 μg/ml and 37.5 μg/ml of QAC12 added (to a final volume of 100 μl) were added to 10^5 cells/mi in a 96-well plate and later incubated at 25° C. for a duration determined by the experimental protocol. Resazurin (7-Hydroxy-31-phenoxazin-3-one 10-oxide; 5 mg/ml; McBride J et al (2005) J. Clin. Microbiol.; 43: 629-634) and trypan blue (0.4 μg/ml; Mafra C S P et al (2013) Investig. Ophthalmol. Vis. Si.; 54: 6363-6372) were then added to trophozoites and cysts respectively after being exposed to the compounds and the cell viability estimated microscopically and from changes in absorbance (at 595 nm and 570 nm) respectively.

[5] = system: A. castellanii trophozoites; assay: Morphometric analysis of trophozoites
Method: as §1
A. castellanii trophozoites incubated with and without QAC for a duration determined by experimental protocol were examined microscopically and their sizes measured using the Open Laboratory (Improvision) calibration graticule. The mean body sizes were determined.

CCCCCCCCCCCCCCCCCC[N+](C)(C)C.[Br-] [QAC18, octadecyltrimethyl ammonium bromide]
7.87: Trophozoite size after treatment ([5]; 37.5 μg/ml for 1 h at 25° C. (FIG. 2B))
amoebotoxic: Amoebotoxicity after wash-out and replacement with PG medium ([1]; after 24 h at 9.375 μg/ml) | Amoebotoxicity after wash-out and replacement with PG medium ([1]; from 1 h onwards at 37.5 μg/ml)
6.1 µg/mL: IC50 ([4]; without QAC12, read-out: Estimated IC50 of QAC18 alone)
+: Back transformation to trophozoites after drug wash-out ([1]; 9.375 μg/ml, 1 h) | Back transformation to trophozoites after drug wash-out ([1]; 18.75 μg/ml, 1 h) | Back transformation to trophozoites after drug wash-out (A. castellanii cysts; 9.375 μg/ml, 24 h) | Back transformation to trophozoites after drug wash-out (A. castellanii cysts; 9.375 μg/ml, 48 h) | Back transformation to trophozoites after drug wash-out (A. castellanii cysts; 9.375 μg/ml, 72 h) | Back transformation to trophozoites after drug wash-out (A. castellanii cysts; 18.75 μg/ml, 24 h) | Back transformation to trophozoites after drug wash-out (A. castellanii cysts; 18.75 μg/ml, 48 h) | Back transformation to trophozoites after drug wash-out (A. castellanii cysts; 18.75 μg/ml, 72 h)
7.87±0.93 μm: Trophozoite size after treatment ([5]; QAC18-treated trophozoites (FIG. 2B))
92%: Disintegration of shrunk treated trophozoites by 0.5% SDS [2]
4 fold: Reduction in trophozoite size relative to untreated [5]
6.7 µg/mL: IC50 ([4]; QAC12 fixed at 18.75 μg/ml, read-out: Estimated IC50 of QAC18 in combination with QAC12)
No resurgence: Resurgence of cysts after drug washout (A. castellanii cysts; 18.75 μg/ml after 48 h) | Resurgence of cysts after drug washout (A. castellanii cysts; 37.5 μg/ml after 24 h)
6.9 µg/mL: IC50 ([4]; QAC12 fixed at 37.5 μg/ml, read-out: Estimated IC50 of QAC18 in combination with QAC12)
−: Back transformation to trophozoites after drug wash-out ([1]; 9.375 μg/ml, 24 h) | Back transformation to trophozoites after drug wash-out ([1]; 9.375 μg/ml, 48 h) | Back transformation to trophozoites after drug wash-out ([1]; 9.375 μg/ml, 72 h) | Back transformation to trophozoites after drug wash-out ([1]; 9.375 μg/ml, 96 h) | Back transformation to trophozoites after drug wash-out ([1]; 18.75 μg/ml, 24 h) | Back transformation to trophozoites after drug wash-out ([1]; 18.75 μg/ml, 48 h) | Back transformation to trophozoites after drug wash-out ([1]; 18.75 μg/ml, 72 h) | Back transformation to trophozoites after drug wash-out ([1]; 18.75 μg/ml, 96 h) | Back transformation to trophozoites after drug wash-out ([1]; 37.50 μg/ml, 1 h) | Back transformation to trophozoites after drug wash-out ([1]; 37.50 μg/ml, 24 h) | Back transformation to trophozoites after drug wash-out ([1]; 37.50 μg/ml, 48 h) | Back transformation to trophozoites after drug wash-out ([1]; 37.50 μg/ml, 72 h) | Back transformation to trophozoites after drug wash-out ([1]; 37.50 μg/ml, 96 h) | Back transformation to trophozoites after drug wash-out (A. castellanii cysts; 37.50 μg/ml, 24 h) | Back transformation to trophozoites after drug wash-out (A. castellanii cysts; 37.50 μg/ml, 48 h) | Back transformation to trophozoites after drug wash-out (A. castellanii cysts; 37.50 μg/ml, 72 h)
1.06 µg/mL and 3 µM: IC50 [3]
